The values that follow are results of earlier work, collected in patent publication US6528705B1, “Method for improving productivity of higher plants” (Nara Institute of Science and Technology, priority 1999, dated 2003).

Like-named read-outs stand apart in the source and are kept apart here.

What is called Km is the substrate concentration at which the rate is half of its maximum. As usually defined, the Ki is a dissociation constant, usually derived from enzyme kinetics or from competition with a known ligand.

For data set [1], the system named is Synechococcus PCC 7942 FBPase-I (fructose-1,6-bisphosphatase/sedoheptulose-1,7-bisphosphatase, FBPase/SBPase), wild type, sequence number 1. As to conditions: purified enzyme.
The target of data set [2] is Synechococcus PCC 7942 FBPase-I (fructose-1,6-bisphosphatase/sedoheptulose-1,7-bisphosphatase, FBPase/SBPase), wild type, sequence number 1.
Data set [3] concerns Synechococcus PCC 7942 FBPase-I (fructose-1,6-bisphosphatase/sedoheptulose-1,7-bisphosphatase, FBPase/SBPase), wild type, sequence number 1. As to conditions: after the treatment by 1 mM H2O2; purified enzyme.

Consider `O=P(O)(O)OC[C@@H](O)[C@H]1OC(O)(COP(=O)(O)O)[C@@H](O)[C@@H]1O` (some centres unmarked) [Sed1,7-P2, sedoheptulose-1,7-bisphosphate], for which the Km in data set [1] (substrate Sed1,7-P2, read-out: Km for Sed1,7-P2) was 118 µM.

In the case of `Nc1ncnc2c1ncn2[C@@H]1O[C@H](COP(=O)(O)O)[C@@H](O)[C@H]1O` [AMP], the Ki in data set [2] (inhibition of the enzyme activity by AMP) is 260 µM.

Take `O=P(O)(O)OC[C@H]1OC(O)(COP(=O)(O)O)[C@@H](O)[C@@H]1O` (some centres unmarked) [Fru1,6-P2, fructose-1,6-bisphosphate]: in data set [1] (substrate Fru1,6-P2, read-out: Km for Fru1,6-P2), the Km was 52 µM. On to `O=P(O)(O)OC[C@H]1O[C@@](CO)(OP(=O)(O)O)[C@@H](O)[C@@H]1O` [fructose-2,6-P2], for which the “inhibition of enzyme activity” value in data set [2] (fructose-2,6-P2, concentration not given) is recorded as “not inhibited”. Consider `OO` [H2O2], for which, in data set [3], the “native enzyme activity retained” value is listed as “more than 80%”.
